Experiment: Pharmacokinetic study in rats after oral administration of SYD extract and its single and combined TCM extracts (UPLC-MS/MS of plasma)
Conditions: male, Sprague-Dawley, rat, plasma, po, n = 6; for AUC(0-inf) / Cmax / MRT last / MRT inf / Tmax / AUC(0-t): rat plasma; for MRT last: MRT(0–t); for MRT inf: MRT(0–∞); for half-life: t1/2, rat plasma
[1] = 2.14 g·kg^−1 (extract), oral LJ + GU extract
[2] = 2.15 g/kg, oral LJ extract 2.15 g/kg
[3] = 3.29 g·kg^−1 (extract), oral LJ + AS extract
[4] = 3.29 g·kg^−1 extract, oral LJ + AS extract
[5] = 4.01 g·kg^−1 (extract), oral LJ + AS + GU extract
[6] = 4.5 g·kg^−1 (extract), oral LJ + SN extract
[7] = 4.5 g·kg^−1 extract, oral LJ + SN extract
[8] = 4.73 g/kg, oral LJ + SN + GU extract 4.73 g/kg
[9] = 5.43 g/kg, oral LJ + SN + AS extract 5.43 g/kg
[10] = 8.25 g/kg, oral SYD extract 8.25 g/kg

## COC(=O)C1=CO[C@@H](O[C@@H]2O[C@H](CO)[C@@H](O)[C@H](O)[C@H]2O)[C@@H]2[C@@H](C)[C@@H](O)C[C@H]12 [Loganin, loganin]
[1]
  AUC(0-inf): 5510 ± 2000 ng·h/mL
  Cmax: 690 ± 440 ng/mL
  MRT last: 8.17 ± 0.62 h
  MRT inf: 88.5 ± 42.1 h
  Tmax: 1.25 ± 0.59 h
  half-life: 8.07 ± 3.65 h
2.14 g·kg^−1 extract, oral LJ + GU extract
  AUC(0-t): 1600 ± 70 ng·h/mL
[2]
  AUC(0-t): 1520 ± 110 ng·h/mL
  AUC(0-inf): 1670 ± 340 ng·h/mL
  Cmax: 1140 ± 520 ng/mL
  MRT last: 3.65 ± 1.03 h
  MRT inf: 6.74 ± 6 h
  Tmax: 1.25 ± 0.59 h
  half-life: 6.71 ± 4.19 h
[3]
  Cmax: 660 ± 350 ng/mL
  MRT last: 7.93 ± 1.33 h
  MRT inf: 80.9 ± 41.5 h
  Tmax: 1.33 ± 0.52 h
  half-life: 7.89 ± 2.42 h
[4]
  AUC(0-t): 1720 ± 310 ng·h/mL
  AUC(0-inf): 5400 ± 1940 ng·h/mL
[5]
  AUC(0-t): 1660 ± 120 ng·h/mL
  AUC(0-inf): 5350 ± 1940 ng·h/mL
  Cmax: 540 ± 170 ng/mL
  MRT last: 8.06 ± 0.78 h
  MRT inf: 81.9 ± 41.3 h
  Tmax: 1.5 ± 0.45 h
  half-life: 7.91 ± 2.17 h
[6]
  MRT last: 7.79 ± 1.38 h
  MRT inf: 80 ± 40.2 h
  Tmax: 1.54 ± 0.56 h
  half-life: 9.39 ± 2.6 h
[7]
  AUC(0-t): 1790 ± 440 ng·h/mL
  AUC(0-inf): 5470 ± 2060 ng·h/mL
  Cmax: 680 ± 100 ng/mL
[8]
  AUC(0-t): 1840 ± 450 ng·h/mL
  AUC(0-inf): 5510 ± 2020 ng·h/mL
  Cmax: 720 ± 450 ng/mL
  MRT last: 7.72 ± 1.48 h
  MRT inf: 79.3 ± 40.8 h
  Tmax: 1.5 ± 0.45 h
  half-life: 6.83 ± 2.11 h
[9]
  AUC(0-t): 1160 ± 780 ng·h/mL
  AUC(0-inf): 1180 ± 770 ng·h/mL
  Cmax: 660 ± 483 ng/mL
  MRT last: 2.5 ± 0.7 h
  MRT inf: 4.07 ± 3.93 h
  Tmax: 1.5 ± 0.45 h
  half-life: 6.25 ± 4.29 h
[10]
  AUC(0-t): 1980 ± 1380 ng·h/mL
  AUC(0-inf): 2170 ± 1400 ng·h/mL
  Cmax: 770 ± 460 ng/mL
  MRT last: 4.71 ± 1.34 h
  MRT inf: 8.87 ± 8.1 h
  half-life: 7.45 ± 3.39 h
